Reference: paper PMC3996874, “Esterase Active in Polar Organic Solvents from the Yeast Pseudozyma sp. NII 08165” (Enzyme Research, 2014)

Test system: T1, LIP1 esterase
T1 construct: single band of 175 kDa on SDS-PAGE
Assay: pNP release at […] nm, Michaelis-Menten fit (GraphPad Prism)
Type: biochemical, Pseudozyma sp. NII 08165
Conditions: pH 8, 60 °C; 0.05-0.7 mM pNPP

Km: 10 µM
SMILES: CCCCCCCCCCCCCCCC(=O)Oc1ccc([N+](=O)[O-])cc1 [para-nitrophenyl palmitate]
